# Source: patent US6602673B2, “Huntingtin-related therapeutics and bioassay” (University of Massachusetts, priority 1996, dated 2003)
# Test system: human fibroblasts
# Assay: Brefeldin A (BFA) treatment of human fibroblasts, immunofluorescence localization of huntingtin, 58 kDa Golgi protein and tubulin
# Format: cell-based
# Description: For the studies described herein, fibroblasts from passage number 10-15 were plated onto coverslips and grown in culture for 24-48 hours. Cells were rinsed briefly with phosphate buffered saline (PBS) and fixed for 10 minutes with 4% paraformaldehyde in PBS at room temperature. After fixation, cells were rinsed multiple times and stored at 4° C. in PBS. Huntingtin was immunolocalized in human fibroblasts using an affinity purified anti-peptide antibody, Ab 2527, at 2-4 μg/ml. In selected experiments, cells were also labeled with a monoclonal antiserum that recognizes clathrin heavy chain (2 μg/ml, Biodesign Int., Kennebunk, Me.), the Golgi-associated 58 kDa protein (ascites serum diluted 1:100, Sigma Chemical Co., St. Louis, Mo.), or human transferrin receptor (5 μg/ml, Zymed Laboratories Inc., San Francisco, Calif.). Cells were made permeable by a 30 minute incubation in 0.1% Triton® X-100 in PBS, rinsed several times, and blocked with 5% normal goat serum for 60 minutes prior to incubation in primary antibodies. All incubations, whether performed with a single type of antibody or two types of antibodies, were carried out overnight at 4° C. and were followed by multiple rinses in PBS. Secondary antibodies were used at a 1:400 dilution. A pooled mixture of either Texas Red goat anti-mouse IgG (Molecular Probes Inc., Eugene, Oreg.) and Bodipy FL anti-rabbit IgG (Molecular Probes Inc, Eugene, Oreg.) or Texas Red goat anti-mouse IgM (Vector Laboratories, Burlingame, Calif.) and Bodipy FL anti-rabbit IgG were used. For immunoperoxidase labeling, cells were rinsed several times after the primary incubation and an avidin/biotin blocking procedure was performed prior to the incubation in secondary antibody. A Vectastain ABC™ kit (Vector Laboratories, Burlingame, Calif.) was employed to localize the primary antibody, and diaminobenzidine was used as a substrate for visualization of the peroxidase reaction product. Sections were examined using conventional immunofluorescence microscopy and a Biorad 1024 laser confocal microscope. Image processing was performed with Adobe Photoshop™.
# To further establish the association of huntingtin with Golgi membranes, cells were treated with the fungal metabolite Brefeldin A (BFA).
# Cells were briefly rinsed with Hank's balanced salt solution (HBSS) and then incubated in complete medium containing BFA (5 μg/ml; Gibco/BRL). The cells were incubated at either 18° C. or 37° C. for 10 minutes, then rinsed briefly with 50 mM phosphate buffered saline (PBS; pH 7.4) and fixed immediately for 10 minutes with 4% paraformaldehyde in PBS at room temperature.
smiles,measurement,setting,value
"C[C@H]1CCC/C=C/[C@@H]2C[C@H](O)C[C@H]2[C@H](O)/C=C/C(=O)O1 [BFA, Brefeldin A]",Distribution of tubulin in BFA-treated cells,compared to untreated cells,unchanged
same,Huntingtin localization after mild BFA treatment,"mild BFA treatment, 5 μg for 10 min at 18° C., human fibroblasts",fragmented and dispersed
same,Huntingtin localization after more severe BFA treatment,"more severe BFA treatment, human fibroblasts",obliterated
same,Localization of huntingtin and the 58 kDa protein in the presence of bfa (figure legend),"normal fibroblasts, +bfa, FIGS. 3C and 3D",more widely dispersed from the nucleus and the Golgi-membrane architecture is disrupted
